In one test the target is T1, CDK2/CycE (Homo sapiens, UniProt P24941).
T1 construct: purchased ProQinase GmbH (Freiburg, Germany); host or cells: insect cells (Sf9)
The test is described as follows: CDK2/CycE kinase assay (TR-FRET, 2 mM ATP). Conditions: 2 mM ATP (high ATP); median; read-out: CDK2/CyclinE, 2 mM ATP (high ATP), IC50 (median). It is filed as biochemical. Summed up:
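Biotin-peptide phosphorylation (0.75 µM substrate, 2 mM ATP final, 25 min, 22 °C) by Sf9-expressed GST-CDK2/GST-CycE, after a 15-min compound pre-binding step. Inhibition scaled between enzyme-free (100%) and uninhibited (0%) wells.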

The target of test [1] is T2, CYCLIN K (nuclear staining in CAL-120 cells) (Homo sapiens, UniProt O75909).
T2 construct: endogenous in cells; host or cells: CAL-120 human breast cancer cells (DSMZ ACC 459)
T2 sequence (O75909 whole entry): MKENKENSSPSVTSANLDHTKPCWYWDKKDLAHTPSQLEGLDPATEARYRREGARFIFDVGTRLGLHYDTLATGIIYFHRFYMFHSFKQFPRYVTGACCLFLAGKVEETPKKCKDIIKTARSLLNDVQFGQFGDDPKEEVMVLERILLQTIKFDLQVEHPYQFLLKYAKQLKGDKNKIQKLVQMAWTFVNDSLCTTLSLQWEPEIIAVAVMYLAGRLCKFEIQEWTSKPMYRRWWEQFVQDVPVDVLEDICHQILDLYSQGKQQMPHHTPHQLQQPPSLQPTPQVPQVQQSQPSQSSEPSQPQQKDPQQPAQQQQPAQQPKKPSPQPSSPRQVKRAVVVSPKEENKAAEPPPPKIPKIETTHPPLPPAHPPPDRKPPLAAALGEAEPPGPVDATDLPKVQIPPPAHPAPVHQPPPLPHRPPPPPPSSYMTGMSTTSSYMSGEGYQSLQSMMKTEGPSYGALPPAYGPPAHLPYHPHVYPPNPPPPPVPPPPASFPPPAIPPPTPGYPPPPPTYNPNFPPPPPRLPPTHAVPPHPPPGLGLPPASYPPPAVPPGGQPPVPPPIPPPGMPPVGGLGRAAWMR
T2 sequence (Q9NYV4 whole entry partner): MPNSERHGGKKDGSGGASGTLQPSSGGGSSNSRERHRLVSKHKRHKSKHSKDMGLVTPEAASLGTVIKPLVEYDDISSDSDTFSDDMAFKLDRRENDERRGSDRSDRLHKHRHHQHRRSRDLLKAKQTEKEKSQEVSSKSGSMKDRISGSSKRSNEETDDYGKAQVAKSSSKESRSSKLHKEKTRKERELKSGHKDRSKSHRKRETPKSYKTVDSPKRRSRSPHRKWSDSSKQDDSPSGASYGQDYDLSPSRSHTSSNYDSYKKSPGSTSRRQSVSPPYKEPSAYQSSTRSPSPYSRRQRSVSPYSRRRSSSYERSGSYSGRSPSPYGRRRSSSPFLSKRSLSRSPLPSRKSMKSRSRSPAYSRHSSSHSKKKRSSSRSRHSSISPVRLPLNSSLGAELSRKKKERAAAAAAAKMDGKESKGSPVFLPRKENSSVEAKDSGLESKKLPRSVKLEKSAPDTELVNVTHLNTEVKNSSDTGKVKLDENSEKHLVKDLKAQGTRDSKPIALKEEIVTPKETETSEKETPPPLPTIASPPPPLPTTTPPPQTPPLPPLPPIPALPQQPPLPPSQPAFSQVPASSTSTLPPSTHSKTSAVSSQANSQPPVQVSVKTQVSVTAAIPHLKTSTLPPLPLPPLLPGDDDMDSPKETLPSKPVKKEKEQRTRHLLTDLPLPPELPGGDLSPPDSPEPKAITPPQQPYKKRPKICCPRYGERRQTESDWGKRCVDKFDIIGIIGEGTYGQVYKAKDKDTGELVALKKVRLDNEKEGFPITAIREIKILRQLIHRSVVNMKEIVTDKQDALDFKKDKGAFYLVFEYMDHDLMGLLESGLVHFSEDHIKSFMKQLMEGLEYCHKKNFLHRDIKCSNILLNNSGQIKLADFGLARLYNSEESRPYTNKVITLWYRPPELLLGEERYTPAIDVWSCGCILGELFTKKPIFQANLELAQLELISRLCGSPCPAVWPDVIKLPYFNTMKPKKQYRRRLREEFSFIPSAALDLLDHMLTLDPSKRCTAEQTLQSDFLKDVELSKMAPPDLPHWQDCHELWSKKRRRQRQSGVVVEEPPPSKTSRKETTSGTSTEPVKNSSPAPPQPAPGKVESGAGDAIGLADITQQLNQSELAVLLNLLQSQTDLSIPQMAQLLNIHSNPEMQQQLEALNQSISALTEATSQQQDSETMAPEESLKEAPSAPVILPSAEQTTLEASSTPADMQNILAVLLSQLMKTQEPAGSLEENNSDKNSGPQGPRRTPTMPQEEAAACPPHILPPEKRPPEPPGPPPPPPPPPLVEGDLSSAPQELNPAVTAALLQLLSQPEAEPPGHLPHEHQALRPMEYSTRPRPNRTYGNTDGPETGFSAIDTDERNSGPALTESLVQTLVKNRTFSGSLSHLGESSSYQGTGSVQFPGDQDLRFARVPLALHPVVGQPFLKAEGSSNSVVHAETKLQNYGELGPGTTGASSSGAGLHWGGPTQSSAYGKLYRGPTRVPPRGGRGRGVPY
Briefly: CYCLIN K nuclear protein level: immunofluorescence high content analysis (CAL-120). It is filed as cell-based. Conditions: 24 h, 50% reduction of nuclear CCNK staining intensity, median, read-out: CYCLIN K degradation IF, DC50-[mol/l] (median). Summed up:
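Readout is automated confocal image analysis of nuclear cyclin K immunofluorescence (Hoechst nuclei) after PFA fixation. Cells were CAL-120, exposed to compound dose-response 24 h at 37 °C; values are DC50 for halving nuclear CCNK signal relative to DMSO and control wells.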

Structures are written as SMILES.

As for `CN1CC2CCC(C1)N2c1nc(NCc2nc3ccccc3[nH]2)n2ncc(Br)c2n1` [Example 226, N-(1H-benzimidazol-2-ylmethyl)-8-bromo-2-(3-methyl-3,8-diazabicyclo[3.2.1]octan-8-yl)pyrazolo[1,5-a][1,3,5]triazin-4-amine], the IC50 at CDK2/CycE is more than 20000 nM. In test [1], the DC50 was 3.89 nM.
The corresponding values for `C[C@@H]1CN(c2nc(NCc3nc4c(F)cccc4[nH]3)n3ncc(C4CC4)c3n2)C[C@H](C)N1` [Example 186, 8-cyclopropyl-2-[(3R,5S)-3,5-dimethylpiperazin-1-yl]-N-[(4-fluoro-1H-benzimidazol-2-yl)methyl]pyrazolo[1,5-a][1,3,5]triazin-4-amine] are more than 20000 nM and 0.16 nM.
Consider `Clc1cnn2c(NCc3nc4ccccc4[nH]3)nc(N3CCOCC3)nc12` [Example 15, N-[(1H-benzimidazol-2-yl)methyl]-8-chloro-2-(morpholin-4-yl)pyrazolo[1,5-a][1,3,5]triazin-4-amine], for which the IC50 at CDK2/CycE worked out at 6520 nM. Further, in test [1], the DC50 came out at 4.51 nM.
In the case of `Fc1ccc2[nH]c(CNc3nc(N4CCNCC4)nc4c(C5CC5)cnn34)nc2c1` [Example 190, 8-cyclopropyl-N-[(5-fluoro-1H-benzimidazol-2-yl)methyl]-2-(piperazin-1-yl)pyrazolo[1,5-a][1,3,5]triazin-4-amine], the IC50 at CDK2/CycE was more than 20000 nM. For the same compound, the DC50 in test [1] was 0.268 nM.
The corresponding values for `O[C@H]1C[C@@H](Nc2nc(NCc3nc4ccccc4[nH]3)n3ncc(Br)c3n2)C1` [Example 234, cis-3-[(4-{[(1H-benzimidazol-2-yl)methyl]amino}-8-bromopyrazolo[1,5-a][1,3,5]triazin-2-yl)amino]cyclobutan-1-ol] are 2730 nM and 1.74 nM.
Regarding `CN1C[C@H]2C[C@@H]1CN2c1nc(NCc2nc3ccccc3[nH]2)n2ncc(Br)c2n1` [Example 218, N-[(1H-benzimidazol-2-yl)methyl]-8-bromo-2-[(1R,4R)-5-methyl-2,5-diazabicyclo[2.2.1]heptan-2-yl]pyrazolo[1,5-a][1,3,5]triazin-4-amine], the IC50 at CDK2/CycE came to 5780 nM. The DC50 in test [1] was determined as 0.685 nM.
The corresponding values for `CC1(C)CN(c2nc(NCc3nc4ccccc4[nH]3)n3ncc(Br)c3n2)CCN1` [Example 216, N-[(1H-benzimidazol-2-yl)methyl]-8-bromo-2-(3,3-dimethylpiperazin-1-yl)pyrazolo[1,5-a][1,3,5]triazin-4-amine] are 15200 nM and 0.354 nM.
The corresponding values for `C[C@H]1CN(c2nc(NCc3nc4ccccc4[nH]3)n3ncc(Br)c3n2)CCN1` [Example 169, N-[(1H-benzimidazol-2-yl)methyl]-8-bromo-2-[(3S)-3-methylpiperazin-1-yl]pyrazolo[1,5-a][1,3,5]triazin-4-amine] are 13300 nM and 1.95 nM.
For `Brc1cnn2c(NCc3nc4ccccc4[nH]3)nc(N3CCC4(CCCN4)C3)nc12` (centres unmarked) [Example 215, N-(1H-benzimidazol-2-ylmethyl)-8-bromo-2-(1,7-diazaspiro[4.4]nonan-7-yl)pyrazolo[1,5-a][1,3,5]triazin-4-amine], in that order: 8980 nM and 6.49 nM.
`Cc1ccc2[nH]c(CNc3nc(N4CCNCC4)nc4c(Br)cnn34)nc2c1` [Example 204, 8-bromo-N-[(5-methyl-1H-benzimidazol-2-yl)methyl]-2-(piperazin-1-yl)pyrazolo[1,5-a][1,3,5]triazin-4-amine]: the IC50 on CDK2/CycE is 10900 nM. Moreover, in test [1], the DC50 amounted to 0.0967 nM.
The corresponding values for `COc1cccc2[nH]c(CNc3nc(N4C[C@@H]5CCCN[C@@H]5C4)nc4c(C5CC5)cnn34)nc12` [Example 214, 8-cyclopropyl-N-[(4-methoxy-1H-benzimidazol-2-yl)methyl]-2-[(4aS,7aS)-octahydro-6H-pyrrolo[3,4-b]pyridin-6-yl]pyrazolo[1,5-a][1,3,5]triazin-4-amine] are 17700 nM and 0.347 nM.
For `CN1C[C@@H]2C[C@H]1CN2c1nc(NCc2nc3ccccc3[nH]2)n2ncc(Br)c2n1` [Example 219, N-[(1H-benzimidazol-2-yl)methyl]-8-bromo-2-[(1S,4S)-5-methyl-2,5-diazabicyclo[2.2.1]heptan-2-yl]pyrazolo[1,5-a][1,3,5]triazin-4-amine], in that order: more than 20000 nM and 1.23 nM.
The corresponding values for `Cc1ccc2[nH]c(CNc3nc(N4C[C@@H]5CCCN[C@@H]5C4)nc4c(C5CC5)cnn34)nc2c1` [Example 195, 8-cyclopropyl-N-[(5-methyl-1H-benzimidazol-2-yl)methyl]-2-[(4aS,7aS)-octahydro-6H-pyrrolo[3,4-b]pyridin-6-yl]pyrazolo[1,5-a][1,3,5]triazin-4-amine] are more than 20000 nM and 1.29 nM.
`OC[C@@H]1CCCCN1c1nc(NCc2nc3cc(F)ccc3[nH]2)n2ncc(C3CC3)c2n1` [Example 191, [(2S)-1-(8-cyclopropyl-4-{[(5-fluoro-1H-benzimidazol-2-yl)methyl]amino}pyrazolo[1,5-a][1,3,5]triazin-2-yl)piperidin-2-yl]methanol]: at CDK2/CycE, the IC50 came to 1770 nM. For the same compound, the DC50 in test [1] came to 0.187 nM.
The corresponding values for `COc1cccc2[nH]c(CNc3nc(N4CCN(C)CC4)nc4c(C5CC5)cnn34)nc12` [Example 197, 8-cyclopropyl-N-[(4-methoxy-1H-benzimidazol-2-yl)methyl]-2-(4-methylpiperazin-1-yl)pyrazolo[1,5-a][1,3,5]triazin-4-amine] are 13400 nM and 0.763 nM.
As for `CN1CC[C@H]2CN(c3nc(NCc4nc5ccccc5[nH]4)n4ncc(Br)c4n3)C[C@H]21` [Example 179, N-[(1H-benzimidazol-2-yl)methyl]-8-bromo-2-[(3aS,6aS)-1-methylhexahydropyrrolo[3,4-b]pyrrol-5 (1H)-yl]pyrazolo[1,5-a][1,3,5]triazin-4-amine], the IC50 on CDK2/CycE was more than 20000 nM. Besides, in test [1], the DC50 came out at 1.37 nM.
Turning to `Fc1ccc2[nH]c(CNc3nc(N4CCNCC4)nc4c(C5CC5)cnn34)nc2c1F` [Example 174, 8-cyclopropyl-N-[(4,5-difluoro-1H-benzimidazol-2-yl)methyl]-2-(piperazin-1-yl)pyrazolo[1,5-a][1,3,5]triazin-4-amine], the IC50 on CDK2/CycE is more than 20000 nM. For the same compound, the DC50 in test [1] stood at 0.0976 nM.
For `Fc1cccc2[nH]c(CNc3nc(N4C[C@@H]5CCCN[C@@H]5C4)nc4c(C5CC5)cnn34)nc12` [Example 187, 8-cyclopropyl-N-[(4-fluoro-1H-benzimidazol-2-yl)methyl]-2-[(4aS,7aS)-octahydro-6H-pyrrolo[3,4-b]pyridin-6-yl]pyrazolo[1,5-a][1,3,5]triazin-4-amine], in that order: more than 20000 nM and 0.369 nM.
On to `Fc1ccc2[nH]c(CNc3nc(N4C[C@@H]5C[C@H]4CO5)nc4c(C5CC5)cnn34)nc2c1` [Example 185, 8-cyclopropyl-N-[(5-fluoro-1H-benzimidazol-2-yl)methyl]-2-[(1S,4S)-2-oxa-5-azabicyclo[2.2.1]heptan-5-yl]pyrazolo[1,5-a][1,3,5]triazin-4-amine], for which the IC50 on CDK2/CycE was more than 20000 nM. Also, the DC50 in test [1] was determined as 2 nM.
The corresponding values for `COc1cccc2[nH]c(CNc3nc(N4C[C@@H](C)N[C@@H](C)C4)nc4c(C5CC5)cnn34)nc12` [Example 212, 8-cyclopropyl-2-[(3R,5S)-3,5-dimethylpiperazin-1-yl]-N-[(4-methoxy-1H-benzimidazol-2-yl)methyl]pyrazolo[1,5-a][1,3,5]triazin-4-amine] are more than 19000 nM and 0.47 nM.
Take `Brc1cnn2c(NCc3nc4ccccc4[nH]3)nc(N3CCNC4(CC4)C3)nc12` [Example 176, N-[(1H-benzimidazol-2-yl)methyl]-8-bromo-2-(4,7-diazaspiro[2.5]octan-7-yl)pyrazolo[1,5-a][1,3,5]triazin-4-amine]: the IC50 at CDK2/CycE was found to be 8600 nM. In test [1], the DC50 worked out at 0.208 nM.
The corresponding values for `C[C@@H]1CN(c2nc(NCc3nc4cc(F)ccc4[nH]3)n3ncc(C4CC4)c3n2)C[C@H](C)N1` [Example 175, 8-cyclopropyl-2-[(3R,5S)-3,5-dimethylpiperazin-1-yl]-N-[(5-fluoro-1H-benzimidazol-2-yl)methyl]pyrazolo[1,5-a][1,3,5]triazin-4-amine] are more than 20000 nM and 0.147 nM.
In the case of `OC[C@@H]1CCCCN1c1nc(NCc2nc3c(F)cccc3[nH]2)n2ncc(C3CC3)c2n1` [Example 189, [(2S)-1-(8-cyclopropyl-4-{[(4-fluoro-1H-benzimidazol-2-yl)methyl]amino}pyrazolo[1,5-a][1,3,5]triazin-2-yl)piperidin-2-yl]methanol], on CDK2/CycE, the IC50 was 761 nM. Also, the DC50 in test [1] came to 0.318 nM.
Regarding `Brc1cnn2c(NCc3nc4ccccc4[nH]3)nc(N3CC4CCC(C3)N4)nc12` [Example 232, N-(1H-benzimidazol-2-ylmethyl)-8-bromo-2-(3,8-diazabicyclo[3.2.1]octan-3-yl)pyrazolo[1,5-a][1,3,5]triazin-4-amine], the IC50 on CDK2/CycE came out at 2870 nM. Further, in test [1], the DC50 amounted to 1.06 nM.
For `COc1cccc2[nH]c(CNc3nc(N4CCNCC4)nc4c(C5CC5)cnn34)nc12` [Example 211, 8-cyclopropyl-N-[(4-methoxy-1H-benzimidazol-2-yl)methyl]-2-(piperazin-1-yl)pyrazolo[1,5-a][1,3,5]triazin-4-amine], in that order: 8560 nM and 0.478 nM.

The values above are taken from patent US20230117034A1, “PYRAZOLOTRIAZINES” (Bayer Aktiengesellschaft, priority 2019, published 2023).
